Laboratory results from ChEMBL document CHEMBL2034889, “The design and synthesis of novel, potent and orally bioavailable N-aryl piperazine-1-carboxamide CCR2 antagonists with very high hERG selectivity” (Bioorg Med Chem Lett, 2012).

Key:
[1] = biological target: T1, C-C chemokine receptor type 2 (Homo sapiens, UniProt P41597); assay: Displacement of 125I-MCP1 from human CCR2 receptor expressed in human THP-1 cell membrane by SPA assay; type: cell membranes
[2] = biological target: T1, C-C chemokine receptor type 2; assay: Antagonist activity at human CCR2 receptor expressed in human THP-1 cells assessed as inhibition of MCP1-induced Ca2+ flux by FLIPR analysis; type: functional, cell-based
[3] = biological target: Voltage-gated inwardly rectifying potassium channel KCNH2 (Homo sapiens, UniProt Q12809)
[4] = Lipophilicity, log D of the compound at pH 7.4; type: physicochemical; conditions: buffer
[5] = Lipophilicity, log P of the compound at pH 7.4; type: physicochemical; conditions: buffer
[6] = Dissociation constant, pKa of the compound; type: physicochemical
[7] = biological target: T1, C-C chemokine receptor type 2; assay: Displacement of 125I-MCP1 from human CCR2 receptor expressed in human HEK cell membrane; type: cell membranes, HEK293

Voltage-gated inwardly rectifying potassium channel KCNH2, sequence (Q12809 whole entry): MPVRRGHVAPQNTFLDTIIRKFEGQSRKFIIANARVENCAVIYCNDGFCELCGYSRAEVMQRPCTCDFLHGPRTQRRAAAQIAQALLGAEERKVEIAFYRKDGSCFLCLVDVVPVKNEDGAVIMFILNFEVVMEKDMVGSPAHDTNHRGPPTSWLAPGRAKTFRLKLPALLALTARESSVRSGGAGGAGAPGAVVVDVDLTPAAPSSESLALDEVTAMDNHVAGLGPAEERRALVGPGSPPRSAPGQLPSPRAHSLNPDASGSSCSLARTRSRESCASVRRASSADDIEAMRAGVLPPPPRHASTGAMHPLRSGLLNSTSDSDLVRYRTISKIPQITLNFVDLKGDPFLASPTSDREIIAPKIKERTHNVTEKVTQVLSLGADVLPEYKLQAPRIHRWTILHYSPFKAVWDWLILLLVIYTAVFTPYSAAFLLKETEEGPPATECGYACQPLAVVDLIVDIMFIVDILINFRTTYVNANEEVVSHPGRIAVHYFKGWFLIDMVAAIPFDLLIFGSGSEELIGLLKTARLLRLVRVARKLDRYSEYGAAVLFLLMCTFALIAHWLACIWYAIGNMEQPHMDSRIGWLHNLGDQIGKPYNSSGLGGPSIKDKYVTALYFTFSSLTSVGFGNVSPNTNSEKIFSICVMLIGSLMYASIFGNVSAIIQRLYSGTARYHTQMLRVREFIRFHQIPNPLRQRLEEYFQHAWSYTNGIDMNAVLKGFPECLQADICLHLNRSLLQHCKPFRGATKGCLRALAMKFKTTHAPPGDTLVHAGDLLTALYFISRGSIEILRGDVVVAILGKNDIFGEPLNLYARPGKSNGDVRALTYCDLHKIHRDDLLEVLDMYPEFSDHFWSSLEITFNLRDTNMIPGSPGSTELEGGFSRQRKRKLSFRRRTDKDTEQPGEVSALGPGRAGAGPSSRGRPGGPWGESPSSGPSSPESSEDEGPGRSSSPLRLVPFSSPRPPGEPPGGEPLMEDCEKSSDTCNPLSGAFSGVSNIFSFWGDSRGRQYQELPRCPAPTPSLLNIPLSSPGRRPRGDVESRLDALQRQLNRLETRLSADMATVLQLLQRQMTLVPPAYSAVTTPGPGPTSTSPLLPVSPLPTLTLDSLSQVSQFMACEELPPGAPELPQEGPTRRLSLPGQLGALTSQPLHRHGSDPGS
T1 sequence (P41597 whole entry): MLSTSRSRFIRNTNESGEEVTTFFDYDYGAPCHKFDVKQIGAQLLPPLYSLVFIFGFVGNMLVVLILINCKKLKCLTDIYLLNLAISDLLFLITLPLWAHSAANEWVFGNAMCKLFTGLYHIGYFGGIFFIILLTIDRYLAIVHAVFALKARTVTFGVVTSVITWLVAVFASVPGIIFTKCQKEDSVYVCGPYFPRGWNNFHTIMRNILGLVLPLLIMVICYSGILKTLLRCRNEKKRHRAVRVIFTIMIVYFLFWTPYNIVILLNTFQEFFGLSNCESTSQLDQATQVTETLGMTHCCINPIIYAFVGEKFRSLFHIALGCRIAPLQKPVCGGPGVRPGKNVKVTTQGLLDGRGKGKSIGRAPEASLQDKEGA

Compound	IC50 [1]	IC50 [2]	logD [4]	logP [5]	pKa [6]	Ki [7]	IC50 [3]
O=C(Nc1ccccc1)N1CCN(C[C@@H]2CCCN(C3CC3)C2)CC1	710 nM	> 3000 nM	–	–	–	–	–
CN1CCCC(CN2CCN(C(=O)Nc3ccc(Cl)c(Cl)c3)CC2)C1 (configuration not stated)	170 nM	965 nM	–	–	–	400 nM	1600 nM
O=C(Nc1ccccc1Cl)N1CCN(C[C@@H]2CCCN(C3CC3)C2)CC1	> 10000 nM	–	–	–	–	–	–
N#Cc1ccc(NC(=O)N2CCN(C[C@@H]3CCCN(C4CC4)C3)CC2)cc1	449 nM	4360 nM	–	–	–	–	–
O=C(Nc1cccc(Cl)c1)N1CCN(C[C@@H]2CCCN(C3CC3)C2)CC1	171 nM	202 nM	–	–	–	–	–
CS(=O)(=O)c1cccc(NC(=O)N2CCN(C[C@@H]3CCCN(C4CC4)C3)CC2)c1	> 10000 nM	–	–	–	–	–	–
O=C(Nc1ccc(C(F)(F)F)cc1)N1CCN(C[C@@H]2CCCN(C3CC3)C2)CC1	68 nM	593 nM	–	–	–	–	–
O=C(Nc1ccc(Cl)cc1)N1CCN(C[C@@H]2CCCN(C3CC3)C2)CC1	127 nM	220 nM	–	–	–	–	14000 nM
COc1ccc(NC(=O)N2CCN(C[C@@H]3CCCN(C4CC4)C3)CC2)cc1	1460 nM	–	–	–	–	–	–
CCN1CCC[C@@H](C(=O)N2CCN(C(=O)Nc3ccc(Cl)c(Cl)c3)CC2)C1	856 nM	588 nM	–	–	–	–	–
CCN1CCCC(CN2CCN(C(=O)Nc3ccc(Cl)c(Cl)c3)CC2)C1 (racemic)	123 nM	627 nM	–	–	–	–	4300 nM
CCN1CCNC(CN2CCN(C(=O)Nc3ccc(Cl)c(Cl)c3)CC2)C1 (racemic)	797 nM	–	–	–	–	–	8900 nM
O=C(Nc1ccc(Cl)c(Cl)c1)N1CCN(C[C@H]2CN(C3CC3)CCO2)CC1	267 nM	262 nM	–	–	–	–	–

These reach a lower IC50 [1]. Values come first.

IC50 [1]	IC50 [2]	logD [4]	logP [5]	pKa [6]	Ki [7]	Compound	IC50 [3]
64 nM	277 nM	–	–	–	–	CCN1CCO[C@@H](CN2CCN(C(=O)Nc3ccc(Cl)c(Cl)c3)CC2)C1	7900 nM
16 nM	58 nM	1.62	4.2	10	–	CC(C)N1CCC[C@@H](CN2CCN(C(=O)Nc3ccc(Cl)c(Cl)c3)CC2)C1	1300 nM
37 nM	174 nM	–	–	–	–	CCN1CCC[C@@H](CN2CCN(C(=O)Nc3ccc(Cl)c(Cl)c3)CC2)C1	2100 nM
27 nM	184 nM	–	–	–	–	Cc1ccc(NC(=O)N2CCN(C[C@@H]3CCCN(C4CC4)C3)CC2)cc1Cl	7100 nM
35 nM	421 nM	–	–	–	–	O=C(Nc1ccc(Cl)c(C(F)(F)F)c1)N1CCN(C[C@@H]2CCCN(C3CC3)C2)CC1	6300 nM
26 nM	32 nM	–	–	–	–	CC(C)N1CCN[C@@H](CN2CCN(C(=O)Nc3ccc(Cl)c(Cl)c3)CC2)C1	–
